Source: patent US20240376084A1, “INHIBITORS OF ALPHA-HEMOLYSIN OF STAPHYLOCOCCUS AUREUS” (Helmholtz-Zentrum Fur Infektionsforschung GmbH, priority 2021, published 2024)

Key:
[1] = target: hemolysin alpha from Staphylococcus aureus (Staphylococcus aureus, UniProt P09616); assay: cell-based
[2] = target: S. aureus Alpha hemolysin (Staphylococcus aureus, UniProt P09616); assay: cell-based; details: A549-LDH Assay activity
Sequence of S. aureus Alpha hemolysin (P09616 27-319 limits assumed): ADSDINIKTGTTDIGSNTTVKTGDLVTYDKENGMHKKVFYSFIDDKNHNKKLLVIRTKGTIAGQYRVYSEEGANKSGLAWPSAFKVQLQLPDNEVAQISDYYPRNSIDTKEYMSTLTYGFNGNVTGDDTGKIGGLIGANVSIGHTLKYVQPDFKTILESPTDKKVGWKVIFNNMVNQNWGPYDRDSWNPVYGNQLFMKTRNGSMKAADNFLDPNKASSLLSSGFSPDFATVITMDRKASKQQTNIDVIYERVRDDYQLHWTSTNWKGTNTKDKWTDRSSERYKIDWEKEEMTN

Sequence of hemolysin alpha from Staphylococcus aureus (P09616 27-319 limits assumed): as above

Structure (SMILES)	IC50 [1]	EC50 [2]	EC50 [1]
O=c1[nH]c2cc(F)c(S(=O)(=O)Nc3ccc(C4CC4)cc3)cc2[nH]c1=O [Compound 68, N-(4-cyclopropylphenyl)-7-fluoro-2,3-dioxo-1,2,3,4-tetrahydroquinoxaline-6-sulfonamide]	30 to 100 nM	100 to 1000 nM	
COc1cc(NS(=O)(=O)c2cc3[nH]c(=O)c(=O)[nH]c3cc2C)ccc1Br [Compound 121, N-(4-bromo-3-methoxyphenyl)-7-methyl-2,3-dioxo-1,2,3,4-tetrahydroquinoxaline-6-sulfonamide]	100 to 1000 nM	1000 to 6000 nM	
CC(C)c1ccc(NS(=O)(=O)c2cc3[nH]c(=O)c(=O)[nH]c3cc2F)cc1 [Compound 101, 7-fluoro-N-(4-isopropylphenyl)-2,3-dioxo-1,2,3,4-tetrahydroquinoxaline-6-sulfonamide]	100 to 1000 nM	100 to 1000 nM	
Cc1cc2[nH]c(=O)c(=O)[nH]c2cc1S(=O)(=O)Nc1ccc(-c2ccc(NC(=O)N(C)C)cc2)c(Cl)c1 [Compound 332, 3-[4-[2-chloro-4-[(7-methyl-2,3-dioxo-1,4-dihydroquinoxalin-6-yl)sulfonylamino]phenyl]phenyl]-1,1-dimethyl-urea]		100 to 1000 nM	100 to 1000 nM
O=c1[nH]c2cc(Cl)c(S(=O)(=O)Nc3ccc(-c4ccc(F)cc4)c(Cl)c3)cc2[nH]c1=O [Compound 12, 7-chloro-N-(2-chloro-4′-fluoro-[1,1′-biphenyl]-4-yl)-2,3-dioxo-1,2,3,4-tetrahydroquinoxaline-6-sulfonamide]	< 30 nM	100 to 1000 nM	
Cc1cc(-c2ccc(NS(=O)(=O)c3cc4[nH]c(=O)c(=O)[nH]c4cc3C)cc2Cl)ccn1 [Compound 140, N-(3-chloro-4-(2-methylpyridin-4-yl)phenyl)-7-methyl-2,3-dioxo-1,2,3,4-tetrahydroquinoxaline-6-sulfonamide]	100 to 1000 nM	100 to 1000 nM	
Cc1cc2[nH]c(=O)c(=O)[nH]c2cc1S(=O)(=O)Nc1ccc(-c2ccc(=O)[nH]c2)c(Cl)c1 [Compound 358, N-[3-chloro-4-(6-oxo-1H-pyridin-3-yl)phenyl]-7-methyl-2,3-dioxo-1,4-dihydroquinoxaline-6-sulfonamide]		30 to 100 nM	100 to 1000 nM
Cc1cc2[nH]c(=O)c(=O)[nH]c2cc1S(=O)(=O)Nc1ccc(-c2ccc3cn[nH]c3c2)c(Cl)c1 [Compound 370, N-[3-chloro-4-(1H-indazol-6-yl)phenyl]-7-methyl-2,3-dioxo-1,4-dihydroquinoxaline-6-sulfonamide]		< 30 nM	< 30 nM
Cc1cc(NS(=O)(=O)c2cc3[nH]c(=O)c(=O)[nH]c3cc2F)cc(C)c1-c1ccccc1 [Compound 74, N-(2,6-dimethyl-[1,1′-biphenyl]-4-yl)-7-fluoro-2,3-dioxo-1,2,3,4-tetrahydroquinoxaline-6-sulfonamide]	100 to 1000 nM	100 to 1000 nM	
CC(C)c1ccc(NS(=O)(=O)c2cc3[nH]c(=O)c(=O)[nH]c3cc2Cl)cc1 [Compound 142, 7-chloro-N-(4-isopropylphenyl)-2,3-dioxo-1,2,3,4-tetrahydroquinoxaline-6-sulfonamide]	100 to 1000 nM	100 to 1000 nM	
Cc1cc2[nH]c(=O)c(=O)[nH]c2cc1S(=O)(=O)Nc1ccc(C2=CCOCC2)cc1 [Compound 297, N-[4-(3,6-dihydro-2H-pyran-4-yl)phenyl]-7-methyl-2,3-dioxo-1,4-dihydroquinoxaline-6-sulfonamide]		100 to 1000 nM	100 to 1000 nM
[2H]C([2H])([2H])c1cc2[nH]c(=O)c(=O)[nH]c2cc1S(=O)(=O)Nc1ccc(-c2ccc(F)cc2)c(Cl)c1 [Compound 387, N-[3-chloro-4-(4-fluorophenyl)phenyl]-2,3-dioxo-7-(trideuteriomethyl)-1,4-dihydroquinoxaline-6-sulfonamide]		30 to 100 nM	< 30 nM
O=c1[nH]c2cc(F)c(S(=O)(=O)Nc3ccc(-c4ccncc4)c(Cl)c3)cc2[nH]c1=O [Compound 150, N-(3-chloro-4-(pyridin-4-yl)phenyl)-7-fluoro-2,3-dioxo-1,2,3,4-tetrahydroquinoxaline-6-sulfonamide]	100 to 1000 nM	100 to 1000 nM	
Cc1cc2[nH]c(=O)c(=O)[nH]c2cc1S(=O)(=O)Nc1ccc(C2CC2)cc1 [Compound 53, N-(4-cyclopropylphenyl)-7-methyl-2,3-dioxo-1,2,3,4-tetrahydroquinoxaline-6-sulfonamide]	30 to 100 nM	< 30 nM	
COc1cc2[nH]c(=O)c(=O)[nH]c2cc1S(=O)(=O)Nc1ccc(Cl)cc1 [Compound 380, N-(4-chlorophenyl)-7-methoxy-2,3-dioxo-1,4-dihydroquinoxaline-6-sulfonamide]		100 to 1000 nM	1000 to 3500 nM
COc1cc(NS(=O)(=O)c2cc3[nH]c(=O)c(=O)[nH]c3cc2C)ccc1-c1ccccc1C [Compound 124, N-(2-methoxy-2′-methyl-[1,1′-biphenyl]-4-yl)-7-methyl-2,3-dioxo-1,2,3,4-tetrahydroquinoxaline-6-sulfonamide]	100 to 1000 nM	100 to 1000 nM	

Structure (SMILES)	IC50 [1]	EC50 [2]	EC50 [1]
Cc1nc2ccc(-c3ccc(NS(=O)(=O)c4cc5[nH]c(=O)c(=O)[nH]c5cc4C)cc3Cl)cc2o1 [Compound 269, N-[3-chloro-4-(2-methyl-1,3-benzoxazol-6-yl)phenyl]-7-methyl-2,3-dioxo-1,4-dihydroquinoxaline-6-sulfonamide]		< 30 nM	< 30 nM
COc1ccc(-c2ccc(NS(=O)(=O)c3cc4[nH]c(=O)c(=O)[nH]c4cc3C)cc2C(F)(F)F)cc1F [Compound 345, N-[4-(3-fluoro-4-methoxy-phenyl)-3-(trifluoromethyl)phenyl]-7-methyl-2,3-dioxo-1,4-dihydroquinoxaline-6-sulfonamide]		< 30 nM	< 30 nM
O=c1[nH]c2cc(F)c(S(=O)(=O)Nc3ccc(-c4ccc5c(c4)NCC5)c(Cl)c3)cc2[nH]c1=O [Compound 10, N-(3-chloro-4-(indolin-6-yl)phenyl)-7-fluoro-2,3-dioxo-1,2,3,4-tetrahydroquinoxaline-6-sulfonamide]	< 30 nM	100 to 1000 nM	
Cc1cc(NS(=O)(=O)c2cc3[nH]c(=O)c(=O)[nH]c3cc2F)ccc1-c1ccccc1 [Compound 33, 7-fluoro-N-(2-methyl-[1,1′-biphenyl]-4-yl)-2,3-dioxo-1,2,3,4-tetrahydroquinoxaline-6-sulfonamide]	< 30 nM	30 to 100 nM	
CC(=O)c1ccccc1-c1ccc(NS(=O)(=O)c2cc3[nH]c(=O)c(=O)[nH]c3cc2C)cc1 [Compound 123, N-(2′-acetyl-[1,1′-biphenyl]-4-yl)-7-methyl-2,3-dioxo-1,2,3,4-tetrahydroquinoxaline-6-sulfonamide]	100 to 1000 nM	1000 to 6000 nM	
O=c1[nH]c2cc(F)c(S(=O)(=O)Nc3ccc(OC(F)(F)F)cc3)cc2[nH]c1=O [Compound 147, 7-fluoro-2,3-dioxo-N-(4-(trifluoromethoxy)phenyl)-1,2,3,4-tetrahydroquinoxaline-6-sulfonamide]	100 to 1000 nM	100 to 1000 nM	
Cc1cc2[nH]c(=O)c(=O)[nH]c2cc1S(=O)(=O)Nc1ccc(-c2ccc(C#N)cc2)c(Cl)c1 [Compound 376, N-[3-chloro-4-(4-cyanophenyl)phenyl]-7-methyl-2,3-dioxo-1,4-dihydroquinoxaline-6-sulfonamide]		30 to 100 nM	< 30 nM
Cc1cc2[nH]c(=O)c(=O)[nH]c2cc1S(=O)(=O)Nc1cc(C)c(-c2sccc2C)c(C)c1 [Compound 132, N-(3,5-dimethyl-4-(3-methylthiophen-2-yl)phenyl)-7-methyl-2,3-dioxo-1,2,3,4-tetrahydroquinoxaline-6-sulfonamide]	100 to 1000 nM	100 to 1000 nM	
Cc1cc2[nH]c(=O)c(=O)[nH]c2c(F)c1S(=O)(=O)Nc1ccc(Br)c(Cl)c1 [Compound 63, N-(4-bromo-3-chlorophenyl)-5-fluoro-7-methyl-2,3-dioxo-1,2,3,4-tetrahydroquinoxaline-6-sulfonamide]	30 to 100 nM	1000 to 6000 nM	
O=c1[nH]c2cc(Cl)c(S(=O)(=O)Nc3ccc4c(c3)CCCC4)cc2[nH]c1=O [Compound 174, 7-chloro-2,3-dioxo-N-(5,6,7,8-tetrahydronaphthalen-2-yl)-1,2,3,4-tetrahydroquinoxaline-6-sulfonamide]	100 to 1000 nM	30 to 100 nM	
Cc1cc2[nH]c(=O)c(=O)[nH]c2cc1S(=O)(=O)Nc1ccc(-c2ccc3cccnc3c2)c(Cl)c1 [Compound 351, N-[3-chloro-4-(7-quinolyl)phenyl]-7-methyl-2,3-dioxo-1,4-dihydroquinoxaline-6-sulfonamide]		100 to 1000 nM	< 30 nM
Cc1cc2[nH]c(=O)c(=O)[nH]c2cc1S(=O)(=O)Nc1ccc(-c2cccc(OC(F)(F)F)c2)c(Cl)c1 [Compound 339, N-[3-chloro-4-[3-(trifluoromethoxy)phenyl]phenyl]-7-methyl-2,3-dioxo-1,4-dihydroquinoxaline-6-sulfonamide]		100 to 1000 nM	30 to 100 nM
C#Cc1cc(NS(=O)(=O)c2cc3[nH]c(=O)c(=O)[nH]c3cc2C)ccc1-c1ccccc1 [Compound 252, N-(3-ethynyl-4-phenyl-phenyl)-7-methyl-2,3-dioxo-1,4-dihydroquinoxaline-6-sulfonamide]		30 to 100 nM	< 30 nM
Cc1cn2ccc(-c3ccc(NS(=O)(=O)c4cc5[nH]c(=O)c(=O)[nH]c5cc4C)cc3Cl)cc2n1 [Compound 338, N-[3-chloro-4-(2-methylimidazo[1,2-a]pyridin-7-yl)phenyl]-7-methyl-2,3-dioxo-1,4-dihydroquinoxaline-6-sulfonamide]		30 to 100 nM	< 30 nM
[2H]C([2H])([2H])c1cc2[nH]c(=O)c(=O)[nH]c2cc1S(=O)(=O)Nc1cnc(-c2ccc(F)cc2)c(Cl)c1 [Compound 392, N-[5-chloro-6-(4-fluorophenyl)-3-pyridyl]-2,3-dioxo-7-(trideuteriomethyl)-1,4-dihydroquinoxaline-6-sulfonamide]		100 to 1000 nM	30 to 100 nM
Cc1cc2[nH]c(=O)c(=O)[nH]c2cc1S(=O)(=O)Nc1ccc(-c2ccc(F)c(C#N)c2)c(Cl)c1 [Compound 393, N-[3-chloro-4-(3-cyano-4-fluoro-phenyl)phenyl]-7-methyl-2,3-dioxo-1,4-dihydroquinoxaline-6-sulfonamide]		100 to 1000 nM	30 to 100 nM
